The values that follow come from patent publication US5362873A, “Tetrahydropyridine derivatives” (Shionogi & Co., Ltd., priority 1990, dated 1994).

A word on the Ki: it is the dissociation constant of the complex between target and ligand, obtained from inhibition or displacement. A lower Ki goes with a stronger hold on the target.

Bounds are passed on as bounds.

For one test, the system named is dopamine receptors. Particulars: prior art, in words; cited from earlier work.
The test system of another test is σ receptors. Particulars: prior art, in words; cited from earlier work.
The target of the next test is T1, DA2 receptor (Rattus norvegicus, UniProt P61169).
T1 construct: receptor preparation (striatal tissue, 0.3 mg protein/ml); from tissue; host or cells: rat striatal membranes
T1 sequence (P61169 whole entry): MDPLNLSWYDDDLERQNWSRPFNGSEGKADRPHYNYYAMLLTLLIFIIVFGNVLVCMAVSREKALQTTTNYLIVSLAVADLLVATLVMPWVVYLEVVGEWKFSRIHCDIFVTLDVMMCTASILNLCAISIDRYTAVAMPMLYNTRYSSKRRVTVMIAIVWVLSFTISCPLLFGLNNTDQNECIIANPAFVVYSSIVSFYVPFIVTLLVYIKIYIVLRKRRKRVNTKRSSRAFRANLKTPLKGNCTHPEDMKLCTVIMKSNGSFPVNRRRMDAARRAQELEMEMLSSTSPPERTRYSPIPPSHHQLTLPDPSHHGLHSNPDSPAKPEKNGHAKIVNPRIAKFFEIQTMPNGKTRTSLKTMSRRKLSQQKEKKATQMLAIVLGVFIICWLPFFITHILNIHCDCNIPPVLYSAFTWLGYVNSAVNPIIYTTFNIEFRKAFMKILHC
The experiment in a line: DA2 receptor binding ([3H]spiroperidol). Particulars: [3H]spiroperidol 0.2 nM, rat striatal tissue, pH 7.4, 37° C., 10 minutes. On the procedure:
(§1) After the decapitation of rats the objective tissues were rapidly removed and each was weighed. Each tissue was homogenized with twenty-fold amount of ice-cold 50 mM […] buffer (pH7.8) homogenized, and centrifuged at 40,000×g for 10 minutes. The supernatant was removed and pellets were then resuspended in the buffer and recentrifuged. The procedure is repeated 3 times. Then these obtained samples were freeze-dried in liquid nitrogen and preserved at -80° C. On the test day the sample was thawed at room temperature and centrifuged at 40,000×g for 10 minutes, the pellets were then suspended in an incubation buffer and used as the receptor preparation. The preparation was added to the mixture containing the labelled ligand and the test drug, and filtered through Whatman GF/C filters and washed to terminate the reaction. Radioactivity on the filters was determined by a liquid scintillation counter and Ki value was calculated.
DA2 receptor binding was initiated by the addition of the receptor preparation (striatal tissue, 0.3 mg protein/ml) to a mixture containing 0.2 nM of [^3 H]spiroperidol and the test compound dissolved in 50 mM Tris-HCl buffer containing 100 mM-NaCl and 5 mM-KCl (pH 7.4). Incubation was carried out at 37° C. for 10 minutes. Specific DA2 receptor binding was defined as the difference in amount of [^3 H]spiroperidol bound to the tissue in the presence or the absence of 10 μM haloperidol.

Another test addresses T2, 5HT2 receptor (Rattus norvegicus, UniProt P14842).
T2 construct: receptor preparation (cortex tissue, 0.5 mg protein/ml); from tissue; host or cells: rat cortex membranes
The experiment in a line: 5HT2 receptor binding ([3H]spiroperidol). The conditions noted are these: [3H]spiroperidol 1 nM, rat cortex tissue, pH 7.4, 37° C., 15 minutes. As to the method: as §1
5HT2 receptor binding was initiated by the addition of the receptor preparation (cortex tissue, 0.5 mg protein/ml) to a mixture containing 1 nM of [^3 H]spiroperidol and the test compound dissolved in 50 mM Tris-HCl buffer (pH 7.4). Incubation was carried out at 37° C. for 15 minutes. Specific 5HT2 receptor binding was defined as the difference in amount of [^3 H]spiroperidol bound to the tissue in the presence or the absence of 1 mM serotonin.

Another test concerns the target PCP receptor. The experiment in a line: PCP receptor binding ([3H]TCP). The conditions noted are these: [3H]TCP 5 nM, rat cortex tissue, pH 7.8, 25° C., 30 minutes. As to the method: as §1
PCP receptor binding was initiated by the addition of the receptor preparation (cortex tissue, 0.2 mg protein/ml) to a mixture containing 5 nM of [^3 H]TCP and the test compound dissolved in 5 mM Tris-HCl buffer (pH 7.8). Incubation was carried out at 25° C. for 30 minutes. Specific PCP receptor binding was defined as the difference in amount of [^3 H]TCP bound to the tissue in the presence or the absence of 10 μM PCP.

For the next test, the target named is σ receptor. The experiment in a line: σ receptor binding ([3H]3PPP). The conditions noted are these: [3H]3PPP 5 nM, rat cortex tissue, pH 7.8, 25° C., 90 minutes. On the procedure: as §1
Sigma receptor binding was initiated by the addition of the receptor preparation (cortex tissue, 0.7 mg protein/ml) to a mixture containing 5 nM of [^3 H]3PPP [3-hydroxyphenyl-N-(1-propyl)piperidine] and the test compound dissolved in 50 mM Tris-HCl buffer (pH 7.8). Incubation was carried out at 25° C. for 90 minutes. Specific sigma receptor binding was defined as the difference in amount of [^3 H]3PPP bound to the tissue in the presence or the absence of 10 μM haloperidol.

T2 sequence (P14842 whole entry): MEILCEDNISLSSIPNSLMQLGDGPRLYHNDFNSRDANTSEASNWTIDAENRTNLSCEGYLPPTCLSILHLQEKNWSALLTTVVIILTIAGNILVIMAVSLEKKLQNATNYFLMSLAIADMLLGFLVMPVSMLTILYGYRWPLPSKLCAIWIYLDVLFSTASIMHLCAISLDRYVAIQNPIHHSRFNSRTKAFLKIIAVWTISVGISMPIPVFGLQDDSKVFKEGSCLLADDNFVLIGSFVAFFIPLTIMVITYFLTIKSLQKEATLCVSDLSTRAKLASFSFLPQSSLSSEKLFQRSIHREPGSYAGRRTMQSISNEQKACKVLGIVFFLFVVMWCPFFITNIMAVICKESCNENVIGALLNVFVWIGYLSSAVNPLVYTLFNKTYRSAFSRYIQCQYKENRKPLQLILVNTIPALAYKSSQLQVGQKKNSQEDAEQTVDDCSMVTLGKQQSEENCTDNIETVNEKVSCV

In the case of `OC(CCCN1CCN(c2ncc(F)cn2)CC1)c1ccc(F)cc1` (centres unmarked) [BMY 148021], in the test on dopamine receptors, the “affinity to dopamine receptors” value was “low affinity”. Further, the “affinity to σ receptors” value in the test on σ receptors was “high affinity”.
For the molecule `O=C1CCCN1C(=O)NCCCN1CC=C(c2ccc(C(F)(F)F)cc2)CC1` [I a-2], the Ki at DA2 receptor was 4700 nM; on 5HT2 receptor, 550 nM; on PCP receptor, 31000 nM; on σ receptor, 4.1 nM.
Regarding `CCCc1ccc(C2=CCN(CCCNC(=O)N3CCCC3=O)CC2)cc1` [I a-3], the Ki at DA2 receptor is 4000 nM; on 5HT2 receptor it was 1700 nM; at PCP receptor, 15000 nM; on σ receptor, 9.5 nM.
In the case of `CC(C)(C)c1ccc(C2=CCN(CCCNC(=O)N3CCCC3=O)CC2)cc1` [I a-6], the Ki came to 2200 nM on DA2 receptor, 2500 nM at 5HT2 receptor, 49000 nM at PCP receptor and 2.7 nM at σ receptor.
Taken in the same sequence, the figures for `CC(C)(C)c1ccc(C2=CCN(CCCC(=O)N3CCCC3=O)CC2)cc1` [I a-8] were 1200 nM, 2900 nM, over 62000 nM and 1.3 nM.
Taken in the same sequence, the figures for `O=C(CCCN1CC=C(c2ccc(C(F)(F)F)cc2)CC1)N1CCCC1=O` [I a-9] were 1600 nM, 1200 nM, 33000 nM and 6.1 nM.
Taken in the same sequence, the figures for `CC(C)(C)c1ccc(C2=CCN(CCCNC(=O)N3CCCC3)CC2)cc1` [I a-11] were 4500 nM, 4400 nM, 23000 nM and 2.6 nM.
`O=C1CCCN1C(=O)NCCCCCN1CC=C(c2ccc(C(F)(F)F)cc2)CC1` [I a-13]: the Ki on DA2 receptor turned out to be 320 nM; on 5HT2 receptor, 770 nM; on PCP receptor it was 26000 nM; on σ receptor, 2.2 nM.
The corresponding values for `Cc1ccc(C2=CCN(CCCN(CC(C)C)CC(C)C)CC2)cc1` [I a-24] are 1100 nM, 380 nM, 32000 nM and 5.8 nM.
Taken in the same sequence, the figures for `CNCCCN1CC=C(c2ccc(C(C)(C)C)cc2)CC1` [I a-30, 1-[(3-methylamino)propyl]-4-(4-tert-butylphenyl)-1,2,5,6-tetrahydropyridine] were 2000 nM, 3700 nM, over 63000 nM and 1.3 nM.
In the case of `CC(C)(C)c1ccc(C2=CCN(CCCN3CCOCC3)CC2)cc1` [I a-35, 4-[3-{4-(4-tert-butylphenyl)-1,2,5,6-tetrahydropyridin-1-yl}propyl]morpholine], the Ki was found to be 4600 nM at DA2 receptor, 3200 nM on 5HT2 receptor, 18000 nM on PCP receptor and 1.8 nM at σ receptor.
Taken in the same sequence, the figures for `CC1CCN(CCCN2CC=C(c3ccc(C(C)(C)C)cc3)CC2)CC1` [I a-56] were 4500 nM, 8900 nM, 44000 nM and 6.5 nM.
The corresponding values for `Cc1ccc(C2=CCN(CCCN3CCC(C)CC3)CC2)cc1` [I a-57] are 2400 nM, 140 nM, 44000 nM and 6.3 nM.
On to `CC(C)(C)c1ccc(C2=CCN(CCCN3CCSCC3)CC2)cc1` [I a-94], for which the Ki on DA2 receptor came out at 1400 nM; at 5HT2 receptor, 1900 nM; on PCP receptor it was 27000 nM; on σ receptor it was 1.3 nM.
Take `Cc1ccc(C2=CCN(CCCN3CCOCC3)CC2)cc1` [I a-101]: the Ki on DA2 receptor was 1800 nM; at 5HT2 receptor, 7700 nM; on PCP receptor, over 63000 nM; at σ receptor, 0.31 nM.
The corresponding values for `Clc1ccc(C2=CCN(CCCN3CCOCC3)CC2)cc1` [I a-102] are 3200 nM, 5700 nM, over 71000 nM and 0.71 nM.
`FC(F)(F)c1ccc(C2=CCN(CCCOc3ccc(Cl)c(Cl)c3)CC2)cc1` [I a-111, 1-{3-(3,4-Dichlorophenoxy)propyl}-4-(4-trifluoromethylphenyl)-1,2,5,6-tetrahydropyridine]: the Ki is 630 nM at DA2 receptor, 390 nM on 5HT2 receptor, over 63000 nM on PCP receptor and 2.9 nM at σ receptor.
On to `C[C@@H]1CN(CCCn2c3ccccc3c3ccccc32)C[C@H](C)N1` [rimcazole], for which, in the test on dopamine receptors, the “affinity to dopamine receptors” value is “low affinity”. For the same molecule, the “affinity to σ receptors” value in the test on σ receptors was “high affinity”.
